# No end group written: not given here.
# Test system: Staphylococcus aureus (ATCC 29213)
# Experiment: not given
# Format: cell-based
# Conditions: ATCC 29213, 1 h
# Text: (§1) Romo1 protein comprises two α-helices. The present inventors synthesized the α-helix 2 region having both hydrophilicity and hydrophobicity, and evaluated the antibacterial activity thereof using minimum bactericidal concentration (MBC) assay. The α-helix 2 region was named KU-5279 (the 52-79 amino acid region of Romo1 protein). Then, in order to identify peptides that are beneficial for human application and have excellent antibacterial activity, the present inventors synthesized several peptides comprising a sequence of contiguous amino acids starting at any amino acid selected from the 52-79 amino acid region of Romo1 protein, and comparatively evaluated the antibacterial activities of the peptides by minimum bactericidal concentration assay (See Table 1 below for information on each peptide). Evaluation of the antibacterial activity of each peptide by minimum bactericidal concentration assay was specifically performed as follows. First, each of Pseudomonas aeruginosa (ATCC 27853) and Staphylococcus aureus (ATCC 29213) was cultured in 3% (w/v) TSB (Tryptic Soy Broth) liquid medium at 37° C. and 200 rpm for 4 hours, and then further cultured under the same conditions for 3 hours to a concentration of 5×10^6 CFU/ml. Strain solutions were prepared by diluting each of the further cultured strains with SP (sodium phosphate; 10 mM sodium phosphate, 1% TSB) buffer to a final concentration of 2×10^5 CFU/ml. Then, each peptide at varying concentrations (0 μg/ml to 300 μg/ml) was dispensed into each well of a 96-well microplate, and 100 μl (1×10^5 CFU/ml) of each of the prepared strain solutions was added thereto, mixed therewith, and allowed to react with the peptide in an incubator at 37° C. for 1 hour. In addition, 30 g/L of TS (tryptic soy) and 15 g/L of agar were dissolved in distilled water and sterilized, and then 25 ml of the solution was poured onto a 100 mm round plate and solidified at room temperature for one day or more, thereby preparing a TS agar plate. 10 μl of each reaction solution of the peptide and the strain was plated on the TS agar plate at a constant size, and incubated in an incubator at 37° C. for 18 hours, and then colony formation on the plate was checked. The minimum bactericidal concentration was defined as the minimum concentration of the peptide at which no colony was formed, and the experimental results are shown in Table 1 below.
row,Substance,MBC value (μg/ml) against Staphylococcus aureus [µg/mL]
1,KTMMQSGGTFGTFMAIGMGKR [KU-5878-I77K],>300
2,KTAMQSGGTFGTFMAIGMGIR [KU-5878-M60A],>300
3,KTMMQSGGTFGTFMAWGMGIR [KU-5878-I73W],300
4,KTMMQSGGTFGTFMAIGMGGR [KU-5878-I77G],90
5,KTMMQSGGTFGTFMAKGMGIR [KU-5878-I73K],>300
6,KTMMQSGGTFGTFMAIGMAIR [KU-5878-G76A],>400
7,KTMMQSGGTFGTFMAIGMGAR [KU-5878-I77A],>300

# Same assay, conditions: Tables 11-15, no unit printed
row,Substance,MBC Staphylococcus aureus [µg/mL]
1,KTMMQSGGTFGTFMAIGMGKR [KU-5878-I77K],> 300
2,KTMMQSGGT-GTFMAIGMGIR [Peptide 5878-d67F],200
3,"KT-MQS-GTFGTFMAIGMGIR [5878-d60M, d64G]",100
4,KTAMQSGGTFGTFMAIGMGIR [KU-5878-M60A],> 300
5,KTMMQSGGHFGTFMAIGMGIR [KU-5878-T66H],> 300
6,KTMMQSGGTFGTFMAWGMGIR [KU-5878-I73W],300
7,K-MMQSGGTFGTFMAIGMGIR [Peptide 5878-d59T],150
8,KTMMQ-GGTFGTFMAIGMGIR [Peptide 5878-d63S],200
9,KTMMQSGGTFGTFMAIGMG-R [Peptide 5878-d77I],> 300
10,KTMMQSGGTFGTFM-IGMGIR [Peptide 5878-d72A],150
11,KTMMQSGGTFGTFMAI-MGIR [Peptide 5878-d74G],25
12,KTMMQSGGTFGAFMAIGMGIR [KU-5878-T69A],300
13,KTMMQSGGTFGTFMAIGMGGR [KU-5878-I77G],90
14,KTMMQSGGTFGTFMAKGMGIR [KU-5878-I73K],> 300
15,KTMMQSGGTFGTFMAIGMAIR [KU-5878-G76A],> 300
16,KTMMQSGGTFGTFMAIGMGAR [KU-5878-I77A],> 300

# Test system: Pseudomonas aeruginosa (ATCC 27853)
# Experiment: not given
# Format: cell-based
# Conditions: ATCC 27853, 1 h
# Text: as §1
row,Substance,MBC value (μg/ml) against Pseudomonas aeruginosa [µg/mL]
1,KTMMQSGGTFGTFMAIGMGKR [KU-5878-I77K],>300
2,KTAMQSGGTFGTFMAIGMGIR [KU-5878-M60A],>300
3,KTMMQSGGTFGTFMAWGMGIR [KU-5878-I73W],300
4,KTMMQSGGTFGTFMAIGMGGR [KU-5878-I77G],80
5,KTMMQSGGTFGTFMAKGMGIR [KU-5878-I73K],>300
6,KTMMQSGGTFGTFMAIGMAIR [KU-5878-G76A],>400
7,KTMMQSGGTFGTFMAIGMGAR [KU-5878-I77A],>300

# Same assay, conditions: Tables 11-15, no unit printed
row,Substance,MBC Pseudomonas aeruginosa [µg/mL]
1,KTMMQSGGTFGTFMAIGMGKR [KU-5878-I77K],> 300
2,KTMMQSGGT-GTFMAIGMGIR [Peptide 5878-d67F],200
3,"KT-MQS-GTFGTFMAIGMGIR [5878-d60M, d64G]",100
4,KTAMQSGGTFGTFMAIGMGIR [KU-5878-M60A],> 300
5,KTMMQSGGHFGTFMAIGMGIR [KU-5878-T66H],> 300
6,KTMMQSGGTFGTFMAWGMGIR [KU-5878-I73W],300
7,K-MMQSGGTFGTFMAIGMGIR [Peptide 5878-d59T],150
8,KTMMQ-GGTFGTFMAIGMGIR [Peptide 5878-d63S],200
9,KTMMQSGGTFGTFMAIGMG-R [Peptide 5878-d77I],> 300
10,KTMMQSGGTFGTFM-IGMGIR [Peptide 5878-d72A],150
11,KTMMQSGGTFGTFMAI-MGIR [Peptide 5878-d74G],20
12,KTMMQSGGTFGAFMAIGMGIR [KU-5878-T69A],300
13,KTMMQSGGTFGTFMAIGMGGR [KU-5878-I77G],80
14,KTMMQSGGTFGTFMAKGMGIR [KU-5878-I73K],> 300
15,KTMMQSGGTFGTFMAIGMAIR [KU-5878-G76A],> 300
16,KTMMQSGGTFGTFMAIGMGAR [KU-5878-I77A],> 300

# Test system: methicillin-resistant Staphylococcus aureus (ATCC 33591)
# Experiment: not given
# Conditions: Tables 11-15, no unit printed
# Method: First, each of Pseudomonas aeruginosa (ATCC 27853) and Staphylococcus aureus (ATCC 29213) was cultured in 3% (w/v) TSB (Tryptic Soy Broth) liquid medium at 37° C. and 200 rpm for 4 hours, and then further cultured under the same conditions for 3 hours to a concentration of 5×10^6 CFU/ml. Strain solutions were prepared by diluting each of the further cultured strains with SP (sodium phosphate; 10 mM sodium phosphate, 1% TSB) buffer to a final concentration of 2×10^5 CFU/ml.
# (§2) Then, each peptide at varying concentrations (0 μg/ml to 300 μg/ml) was dispensed into each well of a 96-well microplate, and 100 μl (1×10^5 CFU/ml) of each of the prepared strain solutions was added thereto, mixed therewith, and allowed to react with the peptide in an incubator at 37° C. for 1 hour.
# In addition, 30 g/L of TS (tryptic soy) and 15 g/L of agar were dissolved in distilled water and sterilized, and then 25 ml of the solution was poured onto a 100 mm round plate and solidified at room temperature for one day or more, thereby preparing a TS agar plate. 10 μl of each reaction solution of the peptide and the strain was plated on the TS agar plate at a constant size, and incubated in an incubator at 37° C. for 18 hours, and then colony formation on the plate was checked.
# Specifically, each type of bacteria was cultured in 3% (w/v) TSB (Tryptic Soy Broth) liquid medium at 37° C. and 200 rpm for 4 hours, and then further cultured under the same conditions for 3 hours to a concentration of 5×10^6 CFU/ml. Strain solutions were prepared by diluting each of the […] of 2×10^5 CFU/ml.
# as §2, with “Then, the KU-5878” for “Then, each”
# In addition, 10 μl of each reaction solution of the peptide and the strain was plated on the TS agar plate at a constant size, and incubated in an incubator at 37° C. for 18 hours, and then colony formation on the plate was checked.
row,Substance,MBC MRSA [µg/mL]
1,KTMMQSGGTFGTFMAIGMGKR [KU-5878-I77K],> 300
2,KTMMQSGGT-GTFMAIGMGIR [Peptide 5878-d67F],200
3,"KT-MQS-GTFGTFMAIGMGIR [5878-d60M, d64G]",110
4,KTAMQSGGTFGTFMAIGMGIR [KU-5878-M60A],> 300
5,KTMMQSGGHFGTFMAIGMGIR [KU-5878-T66H],> 300
6,KTMMQSGGTFGTFMAWGMGIR [KU-5878-I73W],> 300
7,K-MMQSGGTFGTFMAIGMGIR [Peptide 5878-d59T],150
8,KTMMQ-GGTFGTFMAIGMGIR [Peptide 5878-d63S],200
9,KTMMQSGGTFGTFMAIGMG-R [Peptide 5878-d77I],> 300
10,KTMMQSGGTFGTFM-IGMGIR [Peptide 5878-d72A],160
11,KTMMQSGGTFGTFMAI-MGIR [Peptide 5878-d74G],25
12,KTMMQSGGTFGAFMAIGMGIR [KU-5878-T69A],300
13,KTMMQSGGTFGTFMAIGMGGR [KU-5878-I77G],90
14,KTMMQSGGTFGTFMAKGMGIR [KU-5878-I73K],> 300
15,KTMMQSGGTFGTFMAIGMAIR [KU-5878-G76A],> 300
16,KTMMQSGGTFGTFMAIGMGAR [KU-5878-I77A],> 300

# Test system: CRPA
# Experiment: MBC, evaluation of antibacterial activities of KU-5878 variants
# Format: cell-based
# Conditions: Tables 11-15, no unit printed
# Method: Variants were prepared by deleting one amino acid from the amino acid sequence of KU-5878 (SEQ ID NO: 13), and the antibacterial activities thereof were evaluated.
# Variants were prepared by deleting two or more amino acids from the amino acid sequence of KU-5878 (SEQ ID NO: 13), and the antibacterial activities thereof were evaluated.
# One amino acid in the amino acid sequence of KU-5878 (SEQ ID NO: 13) was substituted, and the antibacterial activities of the peptides were evaluated.
# Substitutions of Q62K, S63K and T66K were sequentially added to the amino acid sequence of KU-5878-T59K, and the antibacterial activities of the peptides were evaluated.
# An amino acid repeat sequence was added to the C-terminus of KU-5878, and the antibacterial activities of the peptides were evaluated. According to Table 15 below, when the R (arginine) repeat sequence or K (lysine) sequence was added to the C-terminus of KU-5878, the antibacterial activity of the peptide increased.
row,Substance,MBC CRPA [µg/mL]
1,KTMMQSGGTFGTFMAIGMGKR [KU-5878-I77K],> 300
2,KTMMQSGGT-GTFMAIGMGIR [Peptide 5878-d67F],200
3,"KT-MQS-GTFGTFMAIGMGIR [5878-d60M, d64G]",100
4,KTAMQSGGTFGTFMAIGMGIR [KU-5878-M60A],> 300
5,KTMMQSGGHFGTFMAIGMGIR [KU-5878-T66H],> 300
6,KTMMQSGGTFGTFMAWGMGIR [KU-5878-I73W],300
7,K-MMQSGGTFGTFMAIGMGIR [Peptide 5878-d59T],150
8,KTMMQ-GGTFGTFMAIGMGIR [Peptide 5878-d63S],200
9,KTMMQSGGTFGTFMAIGMG-R [Peptide 5878-d77I],> 300
10,KTMMQSGGTFGTFM-IGMGIR [Peptide 5878-d72A],170
11,KTMMQSGGTFGTFMAI-MGIR [Peptide 5878-d74G],30
12,KTMMQSGGTFGAFMAIGMGIR [KU-5878-T69A],300
13,KTMMQSGGTFGTFMAIGMGGR [KU-5878-I77G],100
14,KTMMQSGGTFGTFMAKGMGIR [KU-5878-I73K],> 300
15,KTMMQSGGTFGTFMAIGMAIR [KU-5878-G76A],> 300
16,KTMMQSGGTFGTFMAIGMGAR [KU-5878-I77A],> 300
